Measurements reported in ChEMBL document CHEMBL1201862, “PubChem BioAssay data set” (2004).
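Each compound was tested at five concentrations against cells in 96-well plates for 48 hours. Abbreviation: GI50, concentration required for 50% inhibition of growth.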 Calls of active or inactive are those of the source. Rule as the data show it: active = GI50 up to about 1.1 µM and inactive = higher.

Key:
Assay in all cases: NCI anticancer screen, dose series, 48 h
A498 = tested on: A498
NCI-H23 = tested on: NCI-H23
SK-MEL-28 = tested on: SK-MEL-28
UACC-257 = tested on: UACC-257
A549 = tested on: A549
RXF 393 = tested on: RXF 393
SNB-19 = tested on: SNB-19
SF-539 = tested on: SF-539
SR = tested on: SR
HCC 2998 = tested on: HCC 2998
SW-620 = tested on: SW-620
BT-549 = tested on: BT-549
HT-29 = tested on: HT-29
MDA-N = tested on: MDA-N
MCF7 = tested on: MCF7
K562 = tested on: K562
NCI/ADR-RES = tested on: NCI/ADR-RES
KM12 = tested on: KM12
SK-OV-3 = tested on: SK-OV-3
Hs-578T = tested on: Hs-578T
TK-10 = tested on: TK-10
Malme-3M = tested on: Malme-3M
T47D = tested on: T47D
HCT-15 = tested on: HCT-15
COLO 205 = tested on: COLO 205
SF-295 = tested on: SF-295
IGROV-1 = tested on: IGROV-1
RPMI-8226 = tested on: RPMI-8226
MDA-MB-231 = tested on: MDA-MB-231
DU-145 = tested on: DU-145
SK-MEL-2 = tested on: SK-MEL-2
EKVX = tested on: EKVX
LOX IMVI = tested on: LOX IMVI
UACC-62 = tested on: UACC-62
HCT-116 = tested on: HCT-116
786-0 = tested on: 786-0
OVCAR-8 = tested on: OVCAR-8
M14 = tested on: M14
MDA-MB-435 = tested on: MDA-MB-435
SN12C = tested on: SN12C
SF-268 = tested on: SF-268
CAKI-1 = tested on: CAKI-1
CCRF-CEM = tested on: CCRF-CEM
HL-60 = tested on: HL-60
HOP-62 = tested on: HOP-62
NCI-H226 = tested on: NCI-H226
NCI-H460 = tested on: NCI-H460
UO-31 = tested on: UO-31
OVCAR-5 = tested on: OVCAR-5
OVCAR-3 = tested on: OVCAR-3
NCI-H522 = tested on: NCI-H522
PC-3 = tested on: PC-3
ACHN = tested on: ACHN
OVCAR-4 = tested on: OVCAR-4
MOLT-4 = tested on: MOLT-4
SK-MEL-5 = tested on: SK-MEL-5
U-251 = tested on: U-251
SNB-75 = tested on: SNB-75
HOP-92 = tested on: HOP-92

Compound: Cc1cc(-c2nc3ccccc3s2)ccc1N
- GI50 (A498): 4.34 µM (inactive)
- GI50 (NCI-H23): 40.4 µM (inactive)
- GI50 (SK-MEL-28): > 76.6 µM (inactive)
- GI50 (UACC-257): 81.5 µM (inactive)
- GI50 (A549): 32.8 µM (inactive)
- GI50 (RXF 393): 50.8 µM (inactive)
- GI50 (SNB-19): > 70.1 µM (inactive)
- GI50 (SF-539): > 71.1 µM (inactive)
- GI50 (SR): 25.6 µM (inactive)
- GI50 (HCC 2998): 5.98 µM (inactive)
- GI50 (SW-620): > 72.4 µM (inactive)
- GI50 (BT-549): 48.3 µM (inactive)
- GI50 (HT-29): 40.3 µM (inactive)
- GI50 (MDA-N): 60.7 µM (inactive)
- GI50 (MCF7): < 0.0133 µM (active)
- GI50 (K562): 38.8 µM (inactive)
- GI50 (NCI/ADR-RES): 57.4 µM (inactive)
- GI50 (KM12): 42.5 µM (inactive)
- GI50 (SK-OV-3): 55.5 µM (inactive)
- GI50 (Hs-578T): > 100 µM (inactive)
- GI50 (TK-10): 0.0302 µM (active)
- GI50 (Malme-3M): 64.3 µM (inactive)
- GI50 (T47D): 0.0322 µM (active)
- GI50 (HCT-15): 42.3 µM
- GI50 (COLO 205): 40.7 µM (inactive)
- GI50 (SF-295): 43 µM (inactive)
- GI50 (IGROV-1): 0.0219 µM (active)
- GI50 (RPMI-8226): 9.79 µM (inactive)
- GI50 (MDA-MB-231): 38.6 µM (inactive)
- GI50 (DU-145): 46.6 µM (inactive)
- GI50 (SK-MEL-2): 56.4 µM (inactive)
- GI50 (EKVX): 26.6 µM (inactive)
- GI50 (LOX IMVI): 31.6 µM (inactive)
- GI50 (UACC-62): 46.1 µM (inactive)
- GI50 (HCT-116): 46.7 µM (inactive)
- GI50 (786-0): 57.8 µM (inactive)
- GI50 (OVCAR-8): 61.5 µM (inactive)
- GI50 (M14): 36.8 µM (inactive)
- GI50 (MDA-MB-435): 56.9 µM (inactive)
- GI50 (SN12C): 32.9 µM (inactive)
- GI50 (SF-268): 52 µM (inactive)
- GI50 (CAKI-1): 43.7 µM (inactive)
- GI50 (CCRF-CEM): 9.44 µM (inactive)
- GI50 (HL-60): 15.7 µM (inactive)
- GI50 (HOP-62): 49.9 µM (inactive)
- GI50 (NCI-H226): 8.67 µM (inactive)
- GI50 (NCI-H460): 27.2 µM (inactive)
- GI50 (UO-31): 6.92 µM (inactive)
- GI50 (OVCAR-5): 19.5 µM (inactive)
- GI50 (OVCAR-3): 35.9 µM (inactive)
- GI50 (NCI-H522): 18.5 µM (inactive)
- GI50 (PC-3): 26 µM (inactive)
- GI50 (ACHN): 45.4 µM (inactive)
- GI50 (OVCAR-4): 4.98 µM (inactive)
- GI50 (MOLT-4): 13.5 µM (inactive)
- GI50 (SK-MEL-5): 21.9 µM (inactive)
- GI50 (U-251): 45 µM (inactive)
- GI50 (SNB-75): 35.3 µM (inactive)
- GI50 (HOP-92): > 100 µM (inactive)

Compound: O=C(CNc1ccc(Cl)cc1)Nn1c(-c2ccccc2)nc2ccccc2c1=O
- GI50 (A498): 14.9 µM (inactive)
- GI50 (NCI-H23): 5.43 µM (inactive)
- GI50 (SK-MEL-28): 6.64 µM (inactive)
- GI50 (UACC-257): 12.8 µM (inactive)
- GI50 (A549): 14.2 µM (inactive)
- GI50 (RXF 393): 6.55 µM (inactive)
- GI50 (SNB-19): 10.8 µM (inactive)
- GI50 (SF-539): 4.37 µM (inactive)
- GI50 (SR): 3.28 µM (inactive)
- GI50 (HCC 2998): 11.1 µM (inactive)
- GI50 (SW-620): 5.12 µM (inactive)
- GI50 (BT-549): 2.32 µM (inactive)
- GI50 (HT-29): 6.27 µM (inactive)
- GI50 (MDA-N): 7.38 µM (inactive)
- GI50 (MCF7): 3.32 µM (inactive)
- GI50 (K562): 3.35 µM (inactive)
- GI50 (NCI/ADR-RES): 6.79 µM (inactive)
- GI50 (KM12): 10.8 µM (inactive)
- GI50 (SK-OV-3): 10.1 µM (inactive)
- GI50 (Hs-578T): 18.4 µM (inactive)
- GI50 (TK-10): 16.4 µM (inactive)
- GI50 (Malme-3M): 6.55 µM (inactive)
- GI50 (T47D): 4.83 µM (inactive)
- GI50 (HCT-15): 6.7 µM
- GI50 (COLO 205): 6.82 µM (inactive)
- GI50 (SF-295): 15.1 µM (inactive)
- GI50 (IGROV-1): 3.84 µM (inactive)
- GI50 (RPMI-8226): 4.47 µM (inactive)
- GI50 (MDA-MB-231): 4.79 µM (inactive)
- GI50 (DU-145): 15.1 µM (inactive)
- GI50 (SK-MEL-2): 16 µM (inactive)
- GI50 (EKVX): 18.1 µM (inactive)
- GI50 (LOX IMVI): 1.3 µM (inactive)
- GI50 (UACC-62): 3.89 µM (inactive)
- GI50 (HCT-116): 1.62 µM (inactive)
- GI50 (786-0): 4.18 µM (inactive)
- GI50 (OVCAR-8): 3.72 µM (inactive)
- GI50 (M14): 6.18 µM (inactive)
- GI50 (MDA-MB-435): 8.17 µM (inactive)
- GI50 (SN12C): 7.43 µM (inactive)
- GI50 (SF-268): 4.62 µM (inactive)
- GI50 (CAKI-1): 11.4 µM (inactive)
- GI50 (CCRF-CEM): 2.04 µM (inactive)
- GI50 (HL-60): 6.65 µM (inactive)
- GI50 (HOP-62): 14.9 µM (inactive)
- GI50 (NCI-H226): 5.52 µM (inactive)
- GI50 (NCI-H460): 8.79 µM (inactive)
- GI50 (UO-31): 6.75 µM (inactive)
- GI50 (OVCAR-5): 14.7 µM (inactive)
- GI50 (OVCAR-3): 12.1 µM (inactive)
- GI50 (NCI-H522): 2.99 µM (inactive)
- GI50 (PC-3): 12.6 µM (inactive)
- GI50 (ACHN): 8.89 µM (inactive)
- GI50 (OVCAR-4): 7.5 µM (inactive)
- GI50 (MOLT-4): 2.49 µM (inactive)
- GI50 (SK-MEL-5): 2.84 µM (inactive)
- GI50 (U-251): 3.47 µM (inactive)
- GI50 (SNB-75): 10.1 µM (inactive)
- GI50 (HOP-92): 5.07 µM (inactive)

Compound: C=C1C(C(O)C[C@H](C)C2O[C@@]3(CCCCO3)CCC2C)O[C@@H]2CCC3(CCC(/C=C/[C@@H](C)C4CC(C)=CC5(O4)O[C@H](C[C@](C)(O)C(=O)O)CCC5O)O3)OC2[C@@H]1O (stereo partly specified)
- GI50 (A498): 0.00564 µM (active)
- GI50 (NCI-H23): 0.00819 µM (active)
- GI50 (SK-MEL-28): 0.00227 µM (active)
- GI50 (UACC-257): 0.00839 µM (active)
- GI50 (A549): 0.0267 µM (active)
- GI50 (RXF 393): 0.018 µM (active)
- GI50 (SNB-19): 0.0027 µM (active)
- GI50 (SF-539): 0.00254 µM (active)
- GI50 (SR): 0.00964 µM (active)
- GI50 (HCC 2998): 0.00171 µM (active)
- GI50 (SW-620): 0.0134 µM (active)
- GI50 (BT-549): 0.00681 µM (active)
- GI50 (HT-29): 0.00828 µM (active)
- GI50 (MDA-N): 0.00117 µM (active)
- GI50 (MCF7): 0.0065 µM (active)
- GI50 (K562): 0.00429 µM (active)
- GI50 (NCI/ADR-RES): 0.128 µM (active)
- GI50 (KM12): 0.00374 µM (active)
- GI50 (SK-OV-3): 0.00955 µM (active)
- GI50 (Hs-578T): 0.00318 µM (active)
- GI50 (TK-10): 0.0162 µM (active)
- GI50 (Malme-3M): 0.000764 µM (active)
- GI50 (T47D): 0.0326 µM (active)
- GI50 (HCT-15): < 0.0163 µM
- GI50 (COLO 205): 0.00376 µM (active)
- GI50 (SF-295): 0.00578 µM (active)
- GI50 (IGROV-1): 0.0217 µM (active)
- GI50 (RPMI-8226): 0.00315 µM (active)
- GI50 (MDA-MB-231): 0.00411 µM (active)
- GI50 (DU-145): 0.00908 µM (active)
- GI50 (SK-MEL-2): 0.00253 µM (active)
- GI50 (EKVX): 0.00614 µM (active)
- GI50 (LOX IMVI): 0.004 µM (active)
- GI50 (UACC-62): 0.00347 µM (active)
- GI50 (HCT-116): 0.00381 µM (active)
- GI50 (786-0): 0.00912 µM (active)
- GI50 (OVCAR-8): 0.00693 µM (active)
- GI50 (M14): 0.00176 µM (active)
- GI50 (MDA-MB-435): 0.00075 µM (active)
- GI50 (SN12C): 0.0127 µM (active)
- GI50 (SF-268): 0.00335 µM (active)
- GI50 (CAKI-1): 0.0107 µM (active)
- GI50 (CCRF-CEM): 0.00826 µM (active)
- GI50 (HL-60): 0.00408 µM (active)
- GI50 (NCI-H226): 0.00405 µM (active)
- GI50 (NCI-H460): 0.00408 µM (active)
- GI50 (UO-31): 0.0527 µM (active)
- GI50 (OVCAR-5): 0.00826 µM (active)
- GI50 (OVCAR-3): 0.00239 µM (active)
- GI50 (NCI-H522): 0.00182 µM (active)
- GI50 (PC-3): 0.00545 µM (active)
- GI50 (ACHN): 0.0191 µM (active)
- GI50 (OVCAR-4): 0.0286 µM (active)
- GI50 (MOLT-4): 0.0122 µM (active)
- GI50 (SK-MEL-5): 0.00308 µM (active)
- GI50 (U-251): 0.00105 µM (active)
- GI50 (SNB-75): 0.000608 µM (active)
- GI50 (HOP-92): 0.00375 µM (active)
